According to patent publication EP0416393A1, “Peptidyl difluorodiol renin inhibitors” (ABBOTT LABORATORIES, priority 1989, dated 1991):
Each block holds one compound with its values, some of them ahead of it.

Tests used:
human renal renin = target: T1, human renal renin (Homo sapiens, UniProt P00797); test: Inhibition of human renal renin with human angiotensinogen substrate; angiotensin I formed measured by radioimmunoassay; type: biochemical; details: 37 degrees C, pH 6.0; read-out: IC₅₀
T1 construct: human renal renin, free from acid proteolytic activity; from tissue; host or cells: human kidney (concluded from the word 'renal')
T1 sequence (P00797 67-406): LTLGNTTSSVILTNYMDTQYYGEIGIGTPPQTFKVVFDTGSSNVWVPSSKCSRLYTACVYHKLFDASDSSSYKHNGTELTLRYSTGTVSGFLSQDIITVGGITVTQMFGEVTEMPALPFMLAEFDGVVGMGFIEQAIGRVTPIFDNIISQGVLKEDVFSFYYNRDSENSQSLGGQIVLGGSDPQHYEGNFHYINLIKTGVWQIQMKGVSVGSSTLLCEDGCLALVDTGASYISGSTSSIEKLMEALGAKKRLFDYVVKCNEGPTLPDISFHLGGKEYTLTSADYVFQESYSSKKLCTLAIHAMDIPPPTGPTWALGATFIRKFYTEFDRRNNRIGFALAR
Protocol: At the end of the incubation, the amount of angiotensin I formed is measured by radioimmunoassay and the molar concentration required to cause 50% inhibition, expressed as the IC₅₀ is calculated. […]

[1] = test system: male cynomolgus monkeys (M. fascicularis); test: In vivo intraduodenal activity: blood pressure in salt-depleted, anesthetized monkeys; details: 1.0 mg/kg intraduodenal
Protocol: Intraduodenal activity for the resultant compound from Example 105 was determined at 1.0 mg/kg in male cynomolgus monkeys (M. fascicularis) weighing between 3 and 5 kg. The monkeys were fed a low-salt chow and fresh fruit diet and treated twice with furosemide (5 mg/kg, po), 1 week and 1 day before the experiment. Following this regimen renders the monkeys in a salt-depleted state, characterized by normal base-line blood pressures but elevated plasma renin activities. The monkeys were fasted overnight and studied under anesthesia on the day of the experiment (sodium pentobarbitol, 15 mg/kg bolus + 0.10 mg/kg/min maintenance iv infusion). A femoral artery was catherterized for the direct and continuous measurement of blood pressure (Grass Pressure Transducer Model P23dB and Graph Polygraph Model 7). The compound was tested for intraduodenal activity via a catheter placed directly into the proximal segment of the duodenum following a laparotomy. Each monkey received only one dose of compound.

Compound: CC(C)C(O)C(F)(F)C(O)C(CC1CCCCC1)NC(=O)C(Cc1c[nH]cn1)NC(=O)C(=Cc1ccccc1)CC(=O)N1CCOCC1 [Example 87, (E)-2-((4-Morpholinylcarbonyl)methyl)cinnamic acid amide of His-2(S)-amino-1-cyclohexyl-4,4-difluoro-3(R),5(R)-dihydroxy-6-methylheptane]
IC50 (human renal renin): 5.2 nM

Compound: CC(C)[C@@H](O)C(F)(F)[C@H](O)[C@H](CC1CCCCC1)NC(=O)[C@H](Cc1cscn1)NC(=O)[C@@H](CC(=O)N(C)CCn1cccn1)Cc1ccccc1 [Example 105, (2R)-2-Benzyl-3-[(2-pyrazol-1-ylethyl)methylaminocarbonyl]propionic acid amide of L-(4-thiazolyl)alanine-2(S)-amino-1-cyclohexyl-4,4-difluoro-3(R),5(R)-dihydroxy-6-methylheptane]
IC50 (human renal renin): 0.35 nM
MBP (Mean blood pressure) ([1]; Monkey A, Time 0 min): 85 mm Hg
MBP (Mean blood pressure) ([1]; Monkey A, Time 5 min): 85 mm Hg
MBP (Mean blood pressure) ([1]; Monkey A, Time 10 min): 74 mm Hg
MBP (Mean blood pressure) ([1]; Monkey A, Time 15 min): 69 mm Hg
MBP (Mean blood pressure) ([1]; Monkey A, Time 20 min): 65 mm Hg
MBP (Mean blood pressure) ([1]; Monkey A, Time 25 min): 67 mm Hg
MBP (Mean blood pressure) ([1]; Monkey A, Time 30 min): 70 mm Hg
MBP (Mean blood pressure) ([1]; Monkey A, Time 35 min): 71 mm Hg
MBP (Mean blood pressure) ([1]; Monkey A, Time 40 min): 74 mm Hg
MBP (Mean blood pressure) ([1]; Monkey A, Time 45 min): 74 mm Hg
MBP (Mean blood pressure) ([1]; Monkey A, Time 50 min): 76 mm Hg
MBP (Mean blood pressure) ([1]; Monkey A, Time 55 min): 77 mm Hg
MBP (Mean blood pressure) ([1]; Monkey A, Time 60 min): 79 mm Hg
MBP (Mean blood pressure) ([1]; Monkey A, Time 65 min): 79 mm Hg
MBP (Mean blood pressure) ([1]; Monkey A, Time 70 min): 79 mm Hg
MBP (Mean blood pressure) ([1]; Monkey A, Time 75 min): 80 mm Hg
MBP (Mean blood pressure) ([1]; Monkey A, Time 80 min): 79 mm Hg
MBP (Mean blood pressure) ([1]; Monkey A, Time 85 min): 80 mm Hg
MBP (Mean blood pressure) ([1]; Monkey A, Time 90 min): 80 mm Hg
MBP (Mean blood pressure) ([1]; Monkey A, Time 95 min): 81 mm Hg
MBP (Mean blood pressure) ([1]; Monkey A, Time 100 min): 82 mm Hg
MBP (Mean blood pressure) ([1]; Monkey A, Time 105 min): 83 mm Hg
MBP (Mean blood pressure) ([1]; Monkey A, Time 109 min): 81 mm Hg
MBP (Mean blood pressure) ([1]; Monkey A, Time 114 min): 81 mm Hg
MBP (Mean blood pressure) ([1]; Monkey A, Time 119 min): 81 mm Hg
MBP (Mean blood pressure) ([1]; Monkey B, Time 0 min): 89 mm Hg
MBP (Mean blood pressure) ([1]; Monkey B, Time 5 min): 88 mm Hg
MBP (Mean blood pressure) ([1]; Monkey B, Time 10 min): 76 mm Hg
MBP (Mean blood pressure) ([1]; Monkey B, Time 15 min): 79 mm Hg
MBP (Mean blood pressure) ([1]; Monkey B, Time 20 min): 75 mm Hg
MBP (Mean blood pressure) ([1]; Monkey B, Time 25 min): 74 mm Hg
MBP (Mean blood pressure) ([1]; Monkey B, Time 30 min): 75 mm Hg
MBP (Mean blood pressure) ([1]; Monkey B, Time 35 min): 78 mm Hg
MBP (Mean blood pressure) ([1]; Monkey B, Time 40 min): 83 mm Hg
MBP (Mean blood pressure) ([1]; Monkey B, Time 44 min): 83 mm Hg
MBP (Mean blood pressure) ([1]; Monkey B, Time 49 min): 82 mm Hg
MBP (Mean blood pressure) ([1]; Monkey B, Time 54 min): 83 mm Hg
MBP (Mean blood pressure) ([1]; Monkey B, Time 59 min): 86 mm Hg
MBP (Mean blood pressure) ([1]; Monkey B, Time 64 min): 83 mm Hg
MBP (Mean blood pressure) ([1]; Monkey B, Time 69 min): 86 mm Hg
MBP (Mean blood pressure) ([1]; Monkey B, Time 74 min): 87 mm Hg
MBP (Mean blood pressure) ([1]; Monkey B, Time 79 min): 89 mm Hg
MBP (Mean blood pressure) ([1]; Monkey B, Time 84 min): 87 mm Hg
MBP (Mean blood pressure) ([1]; Monkey B, Time 89 min): 92 mm Hg
MBP (Mean blood pressure) ([1]; Monkey B, Time 94 min): 86 mm Hg
MBP (Mean blood pressure) ([1]; Monkey B, Time 99 min): 90 mm Hg
MBP (Mean blood pressure) ([1]; Monkey B, Time 104 min): 91 mm Hg
MBP (Mean blood pressure) ([1]; Monkey B, Time 109 min): 90 mm Hg
MBP (Mean blood pressure) ([1]; Monkey B, Time 114 min): 92 mm Hg
MBP (Mean blood pressure) ([1]; Monkey B, Time 119 min): 92 mm Hg

Compound: Cbz((β,β-di-Me)-β-Ala)-Phe-His amide of 2(S)-Amino-1-cyclohexyl-4,4-difluoro-3(R),5(R)-dihydroxy-6-methylheptane [Example 79]
IC50 (human renal renin): 1.1 nM

Compound: CC(C)[C@@H](O)C(F)(F)[C@H](O)[C@H](CC1CCCCC1)NC(=O)[C@H](Cc1cscn1)NC(=O)[C@@H](CC(=O)N1CCN(C)CC1)Cc1ccccc1 [Example 93, 2(R)-2-Benzyl-3(4-methylpiperazine-1-ylcarbonyl)propionic acid amide of L-(4-thiazolyl)alamine-2(S) amino-1-cyclohexyl-4,4-difluoro-3(R),5(R)-dihydroxy-6-methylheptane]
IC50 (human renal renin): 1.5 nM

Compound: CC(C)C(O)C(F)(F)C(O)C(CC1CCCCC1)NC(=O)C(Cc1c[nH]cn1)NC(=O)C(CC(=O)N1CCOCC1)Cc1cccc2ccccc12 [Example 86, 2(R,S)-(4-morpholinylcarbonylmethyl)-3-(1′-naphthyl)-propionic acid amide of His-2(S)-amino-1-cyclohexyl-4,4-difluoro-3(R),5(R)-dihydroxy-6-methylheptane]
IC50 (human renal renin): 1.2 nM

Continued by falling IC50 (human renal renin), values first:

IC50 (human renal renin): 22 nM
Compound: CC(C)CC(NC(=O)C(Cc1ccccc1)NC(=O)OC(C)(C)C)C(=O)NC(CC1CCCCC1)C(O)C(F)(F)C(O)C(C)C [Example 61, Boc-Phe-Leu amide of 2(S)-Amino-1-cyclohexyl-4,4-difluoro-3(R),5(S)-dihydroxy-6-methylheptane]

IC50 (human renal renin): 2.5 nM
Compound: CC(O)C(F)(F)C(O)C(CC1CCCCC1)NC(=O)C(Cc1c[nH]cn1)NC(=O)C(Cc1ccccc1)NC(=O)OC(C)(C)C [Example 78, Boc-Phe-His amide of 2(S)-Amino-1-cyclohexyl-4,4-difluoro-3(R),5(R,S)-dihydroxyhexane]

IC50 (human renal renin): 1.5 nM
Compound: CC(C)[C@@H](O)C(F)(F)[C@H](O)[C@H](CC1CCCCC1)NC(=O)[C@H](Cc1c[nH]cn1)NC(=O)[C@@H](CC(=O)N1CCOCC1)Cc1ccccc1 [Example 83, 2(R)-2-Benzyl-3-Morpholinocarbonylpropionic acid amide of His-2(S)-Amino-1-cyclohexyl-4,4-difluoro-3(R),5(R)-dihydroxy-6-methylheptane]

IC50 (human renal renin): 1.2 nM
Compound: CC(C)[C@@H](O)C(F)(F)[C@H](O)[C@H](CC1CCCCC1)NC(=O)[C@H](Cc1c[nH]cn1)NC(=O)[C@H](Cc1ccccc1)NC(=O)OC(C)(C)C [Example 77, Boc-Phe-His-amide of 2(S)-Amino-1-cyclohexyl-4,4-difluoro-3(R),5(R)-dihydroxy-6-methylheptane]

IC50 (human renal renin): 1 nM
Compound: CC(C)[C@@H](O)C(F)(F)[C@H](O)[C@H](CC1CCCCC1)NC(=O)C(Cc1cnc[nH]1)NC(=O)C(Cc1ccc(O)cc1)N(C)C(=O)CC(C)(C)NC(=O)OCc1ccccc1 (stereo partly drawn) [Example 80, Cbz((β,β-di-Me)-β-Ala)-(Me)Tyr-His amide of 2(S)-Amino-1-cyclohexyl-4,4-difluoro-3(R),5(R)-dihydroxy-6-methylheptane]

IC50 (human renal renin): 0.69 nM
Compound: CC(C)CC(NC(=O)C(Cc1ccccc1)NC(=O)OC(C)(C)C)C(=O)NC(CC1CCCCC1)C(=O)C(F)(F)C(=O)C(C)C [Example 98, Boc-Phe-Leu amide of 2(S)-Amino-1-cyclohexyl-4,4-difluoro-3,5-dioxo-6-methylheptane]

IC50 (human renal renin): 0.64 nM
Compound: CC(C)C[C@H](NC(=O)[C@H](Cc1ccccc1)NC(=O)OC(C)(C)C)C(=O)N[C@@H](CC1CCCCC1)[C@@H](O)C(F)(F)[C@H](O)C(C)C [Example 60, Boc-Phe-Leu amide of 2(S)-Amino-1-cyclohexyl-4,4-difluoro-3(R),5(R)dihydroxy-6-methylheptane]
